Data taken from patent US9212182B2, “Bicyclic sulfonamide compounds as sodium channel inhibitors” (AMGEN INC., priority 2013, dated 2015).

Biological target: Nav 1.7 (Homo sapiens (Human), UniProt Q15858)
Test: in-vitro Nav 1.7 PX (IC50)
Type: cell-based
Details: not given

Chain of Nav 1.7 (Q15858 whole entry): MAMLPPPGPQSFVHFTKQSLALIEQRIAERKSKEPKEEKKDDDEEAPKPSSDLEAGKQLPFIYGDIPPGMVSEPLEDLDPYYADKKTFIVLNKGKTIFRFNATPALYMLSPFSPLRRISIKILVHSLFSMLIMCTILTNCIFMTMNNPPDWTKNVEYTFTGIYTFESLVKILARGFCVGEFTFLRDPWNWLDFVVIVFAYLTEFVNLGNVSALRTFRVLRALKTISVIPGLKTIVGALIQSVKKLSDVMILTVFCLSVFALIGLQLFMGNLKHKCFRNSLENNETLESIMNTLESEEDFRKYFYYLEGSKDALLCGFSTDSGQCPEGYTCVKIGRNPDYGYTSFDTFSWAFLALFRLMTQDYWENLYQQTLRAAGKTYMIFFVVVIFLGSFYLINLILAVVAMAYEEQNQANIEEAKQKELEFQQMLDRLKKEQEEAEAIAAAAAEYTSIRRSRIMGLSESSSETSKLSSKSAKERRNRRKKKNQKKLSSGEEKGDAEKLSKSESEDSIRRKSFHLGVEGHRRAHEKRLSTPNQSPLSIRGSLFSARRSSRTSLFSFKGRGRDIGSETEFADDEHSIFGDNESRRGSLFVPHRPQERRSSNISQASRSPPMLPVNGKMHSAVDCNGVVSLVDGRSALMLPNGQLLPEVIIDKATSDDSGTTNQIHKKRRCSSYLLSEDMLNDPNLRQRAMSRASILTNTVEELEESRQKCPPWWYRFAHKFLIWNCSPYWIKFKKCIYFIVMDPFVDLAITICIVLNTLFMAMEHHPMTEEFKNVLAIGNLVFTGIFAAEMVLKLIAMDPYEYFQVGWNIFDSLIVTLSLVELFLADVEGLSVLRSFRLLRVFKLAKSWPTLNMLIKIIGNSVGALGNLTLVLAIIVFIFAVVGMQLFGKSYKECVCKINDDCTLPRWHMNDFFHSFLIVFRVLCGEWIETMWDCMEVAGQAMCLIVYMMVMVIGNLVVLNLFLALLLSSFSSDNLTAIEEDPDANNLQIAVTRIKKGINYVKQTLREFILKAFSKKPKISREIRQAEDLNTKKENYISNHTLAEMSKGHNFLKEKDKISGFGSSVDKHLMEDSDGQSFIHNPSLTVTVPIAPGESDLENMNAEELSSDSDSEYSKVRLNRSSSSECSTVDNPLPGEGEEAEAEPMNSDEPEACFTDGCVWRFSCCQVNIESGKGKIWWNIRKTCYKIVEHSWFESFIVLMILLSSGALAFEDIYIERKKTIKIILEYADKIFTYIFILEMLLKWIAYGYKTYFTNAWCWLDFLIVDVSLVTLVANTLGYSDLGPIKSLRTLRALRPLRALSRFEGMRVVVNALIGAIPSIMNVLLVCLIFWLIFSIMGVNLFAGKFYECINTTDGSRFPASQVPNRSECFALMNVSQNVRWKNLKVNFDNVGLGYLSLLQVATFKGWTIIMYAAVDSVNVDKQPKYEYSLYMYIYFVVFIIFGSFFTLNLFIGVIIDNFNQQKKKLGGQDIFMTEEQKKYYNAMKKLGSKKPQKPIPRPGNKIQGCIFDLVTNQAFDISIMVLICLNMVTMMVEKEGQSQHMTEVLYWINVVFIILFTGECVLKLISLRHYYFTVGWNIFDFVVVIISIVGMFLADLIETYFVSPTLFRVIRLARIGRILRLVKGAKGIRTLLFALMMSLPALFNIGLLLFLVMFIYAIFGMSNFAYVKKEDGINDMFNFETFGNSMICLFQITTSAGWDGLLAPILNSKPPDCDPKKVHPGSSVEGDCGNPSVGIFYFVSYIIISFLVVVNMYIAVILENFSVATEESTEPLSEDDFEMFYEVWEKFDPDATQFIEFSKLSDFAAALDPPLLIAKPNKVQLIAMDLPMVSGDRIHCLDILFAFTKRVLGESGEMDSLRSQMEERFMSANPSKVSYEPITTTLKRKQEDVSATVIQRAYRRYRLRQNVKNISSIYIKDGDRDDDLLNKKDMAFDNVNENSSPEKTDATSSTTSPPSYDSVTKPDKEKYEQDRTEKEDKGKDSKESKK

IC50 [nM] | SMILES
2370 | COc1cc(C2CC2)ccc1-n1c(=O)ccc2cc(S(=O)(=O)Nc3ccon3)ccc21 (atropisomer, axis not shown; (P)) [Example 1210, (P)-1-(4-cyclopropyl-2-methoxyphenyl)-N-3-isoxazolyl-2-oxo-1,2-dihydro-6-quinolinesulfonamide]
54 | COc1ccc(-c2cccc(F)c2)cc1-n1c(=O)ccc2cc(S(=O)(=O)Nc3ccon3)ccc21 (atropisomer, axis not shown; (P)) [Example 483, (P)-1-(3′-fluoro-4-methoxy-3-biphenylyl)-N-3-isoxazolyl-2-oxo-1,2-dihydro-6-quinolinesulfonamide]
119 | COc1nc(OCc2ccc(F)c(F)c2F)c(Cl)cc1-n1c(=O)ccc2cc(S(=O)(=O)Nc3ccon3)ccc21 [Example 1216, 1-(5-chloro-2-methxy-6-((2,3,4-trifluorobenzyl)oxy)-3-pyridinyl)-N-3-isoxazolyl-2-oxo-1,2-dihydro-6-quinolinesulfonamide]
418 | COc1ccc(-c2cccc(C#N)c2)cc1-n1c(=O)ccc2cc(S(=O)(=O)Nc3ccon3)ccc21 [Example 493, 1-(3′-cyano-4-methoxy-3-biphenylyl)-N-3-isoxazolyl-2-oxo-1,2-dihydro-6-quinolinesulfonamide]
111 | COc1nc(OCc2ccc(F)cc2)c(Cl)cc1-n1c(=O)ccc2cc(S(=O)(=O)Nc3ccon3)ccc21 [Example 1214, 1-(5-chloro-6-((4-fluorobenzyl)oxy)-2-methoxy-3-pyridinyl)-N-3-isoxazolyl-2-oxo-1,2-dihydro-6-quinolinesulfonamide]
682 | COc1ccc(-c2cncc(Cl)c2)cc1-n1c(=O)ccc2cc(S(=O)(=O)Nc3ccon3)ccc21 [Example 494, 1-(5-(5-chloro-3-pyridinyl)-2-methoxyphenyl)-N-3-isoxazolyl-2-oxo-1,2-dihydro-6-quinolinesulfonamide]

SMILES | IC50 [nM]
COc1cc(-c2cccc(Cl)c2)ccc1-n1c(=O)ccc2cc(S(=O)(=O)Nc3ccon3)ccc21 [Example 351, M-1-(3′-chloro-3-methoxy-[1,1′-biphenyl]-4-yl)-N-(isoxazol-3-yl)-2-oxo-1,2-dihydroquinoline-6-sulfonamide] | 5520
O=c1ccc2cc(S(=O)(=O)Nc3ccon3)ccc2n1-c1cc(F)c(-c2cc(F)cc(F)c2)cc1OC1CNC1 [Example 670, 1-(5-(azetidin-3-yloxy)-2,3′,5′-trifluoro-[1,1′-biphenyl]-4-yl)-N-(isoxazol-3-yl)-2-oxo-1,2-dihydroquinoline-6-sulfonamide 2,2,2-trifluoroacetate] | 39
COc1cc(-c2ccc(Cl)c(C)c2)c(Cl)cc1-n1c(=O)ccc2cc(S(=O)(=O)Nc3ccon3)ccc21 (atropisomer, axis not shown; (M)) [Example 472, (M)-1-(2,4′-dichloro-5-methoxy-3′-methyl-[1,1′-biphenyl]-4-yl)-N-(isoxazol-3-yl)-2-oxo-1,2-dihydroquinoline-6-sulfonamide] | 786
COc1cc(-c2cccc(F)c2)c(Cl)cc1-n1c(=O)cc(C)c2cc(S(=O)(=O)Nc3ccon3)ccc21 [Example 349, M-1-(2-chloro-3′-fluoro-5-methoxy-[1,1′-biphenyl]-4-yl)-N-(isoxazol-3-yl)-4-methyl-2-oxo-1,2-dihydroquinoline-6-sulfonamide] | 10600

Same assay, conditions: in-vitro Nav 1.7 PX data

IC50 [nM] | SMILES
50 | COc1cc(-c2ccc(Cl)c(C)c2)ccc1-n1c(=O)ccc2cc(S(=O)(=O)Nc3ccc(F)cn3)ccc21 (atropisomer, axis not shown; (P)) [Example 689, (P)-1-(4′-chloro-3-methoxy-3′-methyl-4-biphenylyl)-N-(5-fluoro-2-pyridinyl)-2-oxo-1,2-dihydro-6-quinolinesulfonamide]
70 | COc1cccc(-c2cc(OC)c(-n3c(=O)ccc4cc(S(=O)(=O)Nc5ccon5)ccc43)cc2F)n1 [Example 805, 1-(5-fluoro-2-methoxy-4-(6-methoxy-2-pyridinyl)phenyl)-N-3-isoxazolyl-2-oxo-1,2-dihydro-6-quinolinesulfonamide]
232 | COc1cc(-c2ccc(F)cc2)c(F)cc1-n1c(=O)ccc2cc(S(=O)(=O)Nc3cc(C)ncn3)ccc21 [Example 772, 1-(2,4′-difluoro-5-methoxy-4-biphenylyl)-N-(6-methyl-4-pyrimidinyl)-2-oxo-1,2-dihydro-6-quinolinesulfonamide]
18 | COc1cc(-c2ccc(Cl)c(C)c2)c(F)cc1-n1c(=O)ccc2cc(S(=O)(=O)Nc3cnsn3)ccc21 [Example 1072, 1-(4′-chloro-2-fluoro-5-methoxy-3′-methyl-4-biphenylyl)-2-oxo-N-1,2,5-thiadiazol-3-yl-1,2-dihydro-6-quinolinesulfonamide]
24 | COc1cc(-c2ccc(Cl)cc2)c(F)cc1-n1c(=O)ccc2cc(S(=O)(=O)Nc3cccnn3)ccc21 [Example 746, 1-(4′-chloro-2-fluoro-5-methoxy-4-biphenylyl)-2-oxo-N-3-pyridazinyl-1,2-dihydro-6-quinolinesulfonamide]
37 | COc1cc(-c2ccc(Cl)cc2)c(F)cc1-n1c(=O)ccc2cc(S(=O)(=O)Nc3ncco3)ccc21 [Example 753, 1-(4′-chloro-2-fluoro-5-methoxy-4-biphenylyl)-N-1,3-oxazol-2-yl-2-oxo-1,2-dihydro-6-quinolinesulfonamide]
38 | COc1cc(C2CCCCC2)c(F)cc1-n1c(=O)ccc2cc(S(=O)(=O)Nc3ccon3)ccc21 [Example 1077, 1-(4-cyclohexyl-5-fluoro-2-methoxyphenyl)-N-3-isoxazolyl-2-oxo-1,2-dihydro-6-quinolinesulfonamide]
9 | COc1cc(CC2C[C@@H]3CC[C@@H]2C3)c(F)cc1-n1c(=O)ccc2cc(S(=O)(=O)Nc3ccon3)ccc21 (some centres unmarked) [Example 1082]
47 | COc1cccc(-c2cc(OC)c(-n3c(=O)ccc4cc(S(=O)(=O)Nc5ccon5)ccc43)cc2F)c1 [Example 709, 1-(2-fluoro-3′,5-dimethoxy-4-biphenylyl)-N-3-isoxazolyl-2-oxo-1,2-dihydro-6-quinolinesulfonamide]
141 | COc1ccc(-c2ccccc2C(F)(F)F)cc1-n1c(=O)ccc2cc(S(=O)(=O)Nc3ccon3)ccc21 [Example 850, N-3-isoxazolyl-1-(4-methoxy-2′-(trifluoromethyl)-3-biphenylyl)-2-oxo-1,2-dihydro-6-quinolinesulfonamide]
120 | COc1cc(-c2ccc(C(F)(F)F)nc2)c(F)cc1-n1c(=O)ccc2cc(S(=O)(=O)Nc3ccon3)ccc21 [Example 761, 1-(5-fluoro-2-methoxy-4-(6-(trifluoromethyl)-3-pyridinyl)phenyl)-N-3-isoxazolyl-2-oxo-1,2-dihydro-6-quinolinesulfonamide]
4660 | COc1nc(OC2CCC2)c(Cl)cc1-n1c(=O)ccc2cc(S(=O)(=O)Nc3ccon3)ccc21 [Example 821, 1-(5-chloro-6-(cyclobutyloxy)-2-methoxy-3-pyridinyl)-N-3-isoxazolyl-2-oxo-1,2-dihydro-6-quinolinesulfonamide]
5 | COc1cc(-c2cccc(C3CC3)c2)c(F)cc1-n1c(=O)ccc2cc(S(=O)(=O)Nc3ccon3)ccc21 [Example 790, 1-(3′-cyclopropyl-2-fluoro-5-methoxy-4-biphenylyl)-N-3-isoxazolyl-2-oxo-1,2-dihydro-6-quinolinesulfonamide]
47 | COc1nc(-c2cccc(C)c2)c(Cl)cc1-n1c(=O)ccc2cc(S(=O)(=O)Nc3ccon3)ccc21 [Example 1088, 1-(5-chloro-2-methoxy-6-(3-methylphenyl)-3-pyridinyl)-N-3-isoxazolyl-2-oxo-1,2-dihydro-6-quinolinesulfonamide]
207 | COc1cc(-c2cc(OC)c(-n3c(=O)ccc4cc(S(=O)(=O)Nc5ncco5)ccc43)cc2F)ccc1F [Example 1011, 1-(2,4′-difluoro-3′,5-dimethoxy-4-biphenylyl)-N-1,3-oxazol-2-yl-2-oxo-1,2-dihydro-6-quinolinesulfonamide]
54 | COc1cc(-c2cc(Cl)cnc2OC)c(F)cc1-n1c(=O)ccc2cc(S(=O)(=O)Nc3ncco3)ccc21 [Example 776, 1-(4-(5-chloro-2-methoxy-3-pyridinyl)-5-fluoro-2-methoxyphenyl)-N-1,3-oxazol-2-yl-2-oxo-1,2-dihydro-6-quinolinesulfonamide]
16 | COc1cc(-c2cccc(Cl)c2OC)c(F)cc1-n1c(=O)ccc2cc(S(=O)(=O)Nc3ccon3)ccc21 [Example 747, 1-(3′-chloro-2-fluoro-2′,5-dimethoxy-4-biphenylyl)-N-3-isoxazolyl-2-oxo-1,2-dihydro-6-quinolinesulfonamide]
113 | COc1ccc(-c2ccc(F)c(F)c2)cc1-n1c(=O)ccc2cc(S(=O)(=O)Nc3ccon3)ccc21 [Example 839, 1-(3′,4′-difluoro-4-methoxy-3-biphenylyl)-N-3-isoxazolyl-2-oxo-1,2-dihydro-6-quinolinesulfonamide]
105 | COc1cc(-c2cc(F)cc(C#N)c2)ccc1-n1c(=O)ccc2cc(S(=O)(=O)Nc3ccon3)ccc21 [Example 1021, 1-(3′-cyano-5′-fluoro-3-methoxy-4-biphenylyl)-N-3-isoxazolyl-2-oxo-1,2-dihydro-6-quinolinesulfonamide]

Same assay, conditions: in-vitro PatchXpress (PX)

IC50 [nM] | SMILES
3 | COc1cc(-c2ccc(Cl)c(C)c2)c(Cl)cc1-n1c(=O)ccc2cc(S(=O)(=O)Nc3ccncn3)ccc21 (atropisomer, axis not shown; (P)) [Example 367, (P)-1-(2,4′-dichloro-5-methoxy-3′-methyl-4-biphenylyl)-2-oxo-N-4-pyrimidinyl-1,2-dihydro-6-quinolinesulfonamide]
21 | COc1cc(-c2cc(F)c(F)cc2F)c(F)cc1-n1c(=O)ccc2cc(S(=O)(=O)Nc3ccon3)ccc21 (atropisomer, axis not shown; (M)) [Example 517, (M)-N-3-isoxazolyl-2-oxo-1-(2,2′,4′,5′-tetrafluoro-5-methoxy-4-biphenylyl)-1,2-dihydro-6-quinolinesulfonamide]
677 | COc1cc(-c2ccc(Cl)c(C)c2)c(Cl)cc1-n1c(=O)ccc2cc(S(=O)(=O)Nc3ccncn3)ccc21 (atropisomer, axis not shown; (M)) [Example 368, (M)-1-(2,4′-dichloro-5-methoxy-3′-methyl-4-biphenylyl)-2-oxo-N-4-pyrimidinyl-1,2-dihydro-6-quinolinesulfonamide]
